Legend:
[1] = test system: K. pneumoniae A-1797 expressing KPC-2 and VIM-4; assay: broth microdilution MIC, K. pneumoniae KPC-2 and VIM-4; assay type: cell-based; details: Fixed Mero (meropenem) 4 μg/mL
How it was run: (§1)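 CAMHB; strains pre-grown 3-5 h. Test cpd 2-fold dilutions, 32→0.25 μg/mL final, + beta-lactam static 4 μg/mL. CLSI inoculation, 16-20 h at 37° C, visual MIC.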

[2] = test system: S. aureus MSSA-7 producing penicillinase PC-1; assay: broth microdilution MIC, S. aureus PC-1; assay type: cell-based; details: Fixed Pip (piperacillin) 4 μg/mL
How it was run: as §1

[3] = target: T1, VIM-2 metallo β-lactamase (Pseudomonas aeruginosa, UniProt Q9K2N0); assay: β-lactamase enzyme inhibition, VIM-2; assay type: biochemical; details: Nitrocefin 100 μM, 486 nm; 15 min at 37° C. preincubation; read-out: IC50 VIM-2 (Class B)
T1 construct: made in house; host or cells: E. coli BL21(DE3)
How it was run: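 VIM-2 purified by Q sepharose anion exchange (50 mM Hepes pH 7.5, 0-600 mM NaCl gradient, two runs, >90% purity). Enzyme preincubated with inhibitor 15 min at 37° C; nitrocefin 100 μM final, absorbance at 486 nm followed 10 min. IC50 from initial hydrolysis rates versus inhibitor-free controls.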

[4] = test system: P. aeruginosa Ps296 expressing VIM-2; assay: broth microdilution MIC, P. aeruginosa VIM-2; assay type: cell-based; details: Fixed Mero (meropenem) 4 μg/mL
How it was run: as §1

[5] = target: T2, p99 AmpC β-lactamase (Enterobacter cloacae, UniProt P05364); assay: β-lactamase enzyme inhibition, p99 AmpC; assay type: biochemical
T2 construct: made in house; host or cells: E. coli BL21(DE3)
T2 sequence (P05364 21-381): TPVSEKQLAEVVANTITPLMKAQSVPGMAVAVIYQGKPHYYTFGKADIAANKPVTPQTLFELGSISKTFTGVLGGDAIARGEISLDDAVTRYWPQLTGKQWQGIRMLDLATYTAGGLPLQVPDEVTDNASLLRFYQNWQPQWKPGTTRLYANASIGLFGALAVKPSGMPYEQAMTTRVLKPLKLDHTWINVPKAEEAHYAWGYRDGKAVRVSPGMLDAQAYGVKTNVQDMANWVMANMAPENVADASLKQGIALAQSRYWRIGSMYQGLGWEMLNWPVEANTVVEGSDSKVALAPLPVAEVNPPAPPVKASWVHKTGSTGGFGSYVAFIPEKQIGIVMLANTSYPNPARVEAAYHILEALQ
How it was run: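 Native untagged E. cloacae p99 AmpC was expressed in E. coli BL21(DE3) and purified by cation exchange and gel filtration. Enzyme was preincubated with inhibitor at 37°C for 15 min.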

[6] = test system: K. pneumoniae 156319 expressing KPC-3; assay: broth microdilution MIC, K. pneumoniae KPC-3; assay type: cell-based; details: Fixed Mero (meropenem) 4 μg/mL
How it was run: as §1

[7] = target: T3, KPC-2 β-lactamase (Klebsiella pneumoniae, UniProt Q9F663); assay: β-lactamase enzyme inhibition, KPC-2; assay type: biochemical; details: imipenem substrate, 300 nm; 15 min at 37° C. preincubation; read-out: IC50 KPC-2 (Class A)
T3 construct: made in house; host or cells: E. coli BL21(DE3)
T3 sequence (Q9F663 25-293, looked up): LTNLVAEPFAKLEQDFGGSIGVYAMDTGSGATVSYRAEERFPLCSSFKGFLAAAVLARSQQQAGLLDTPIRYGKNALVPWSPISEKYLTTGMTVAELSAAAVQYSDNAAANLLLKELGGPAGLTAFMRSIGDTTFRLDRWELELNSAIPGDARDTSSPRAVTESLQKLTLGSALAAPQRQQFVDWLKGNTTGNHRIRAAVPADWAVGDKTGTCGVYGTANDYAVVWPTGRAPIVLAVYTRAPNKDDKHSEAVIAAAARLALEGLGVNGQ
How it was run: (§2)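 Native untagged β-lactamases were expressed in E. coli BL21(DE3) and purified. Enzyme was preincubated with inhibitor for 15 min at 37° C., then substrate hydrolysis was followed: nitrocefin 100 μM for p99 AmpC and OXA-1 (486 nm, 10 min), imipenem for KPC-2 (300 nm), cefotaxime for SHV-5 (260 nm). IC50 was derived from initial rates relative to uninhibited controls.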

[8] = target: T4, OXA-1 β-lactamase (Escherichia coli, UniProt P13661); assay: β-lactamase enzyme inhibition, OXA-1; assay type: biochemical; details: Nitrocefin 100 μM, 486 nm; 15 min at 37° C. preincubation; read-out: IC50 OXA-1 (Class D)
T4 construct: made in house; host or cells: E. coli BL21(DE3)
T4 sequence (P13661 26-276): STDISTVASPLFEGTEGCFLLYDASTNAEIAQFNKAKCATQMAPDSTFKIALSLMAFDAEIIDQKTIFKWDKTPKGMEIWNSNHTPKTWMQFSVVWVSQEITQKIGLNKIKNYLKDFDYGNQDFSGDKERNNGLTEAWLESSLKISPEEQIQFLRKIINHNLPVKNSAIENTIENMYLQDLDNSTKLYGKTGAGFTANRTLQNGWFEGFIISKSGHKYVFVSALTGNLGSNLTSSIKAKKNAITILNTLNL
How it was run: as §2

[9] = test system: E. coli ESBL4 expressing CTX-M-15; assay: broth microdilution MIC, E. coli CTX-M-15; assay type: cell-based; details: Fixed CAZ (ceftazidime) 4 μg/mL
How it was run: as §1

[10] = target: T5, SHV-5 β-lactamase (Klebsiella pneumoniae, UniProt P0A3M1); assay: β-lactamase enzyme inhibition, SHV-5; assay type: biochemical
T5 construct: made in house; host or cells: E. coli BL21(DE3)
T5 sequence (P0A3M1 22-286): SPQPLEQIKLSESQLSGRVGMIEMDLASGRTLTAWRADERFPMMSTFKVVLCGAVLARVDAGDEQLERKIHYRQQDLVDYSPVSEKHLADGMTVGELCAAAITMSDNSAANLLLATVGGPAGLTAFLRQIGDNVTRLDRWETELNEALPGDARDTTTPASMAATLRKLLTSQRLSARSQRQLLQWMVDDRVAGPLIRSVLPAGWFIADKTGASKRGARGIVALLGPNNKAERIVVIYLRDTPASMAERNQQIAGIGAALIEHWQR
How it was run: as §2

[11] = test system: E. cloacae 144200 expressing Class C P99 AmpC; assay: broth microdilution MIC, E. cloacae P99; assay type: cell-based; details: Fixed CAZ (ceftazidime) 4 μg/mL
How it was run: as §1

SMILES	MIC of exemplary compounds in presence of fixed β-lactams, K.P. A-1797 KPC-2 VIM-4 [1]	MIC of exemplary compounds in presence of fixed β-lactams, S. aureus MSSA-7 PC-1 [2]	IC50 [3]	MIC of exemplary compounds in presence of fixed β-lactams, P. aerug. Ps296 VIM-2 [4]	IC50 [5]	MIC of exemplary compounds in presence of fixed β-lactams, K.P. 156319 KPC-3 [6]	IC50 [7]	IC50 [8]	MIC of exemplary compounds in presence of fixed β-lactams, E. coli ESBL4 CTX-M-15 [9]	IC50 [10]	MIC of exemplary compounds in presence of fixed β-lactams, E. cl. 144200 p99 AmpC [11]
O=C(CCc1nccs1)N[C@H]1Cc2cccc(C(=O)O)c2OB1O [Example 31, (R)-2-hydroxy-3-(3-(thiazol-2-yl)propanamido)-3,4-dihydro-2H-benzo[e][1,2]oxaborinine-8-carboxylic acid]	B (B represents the MIC in the presence of between 8 and 32 g/mL of a β-lactamase inhibitor)	C (C represents the MIC in the presence of ≤4 g/mL of a β-lactamase inhibitor)	1 to 10 µM	C (C represents the MIC in the presence of ≤4 g/mL of a β-lactamase inhibitor)	< 0.1 µM	C (C represents the MIC in the presence of ≤4 g/mL of a β-lactamase inhibitor)	< 0.1 µM	< 0.1 µM	C (C represents the MIC in the presence of ≤4 g/mL of a β-lactamase inhibitor)	< 0.1 µM	C (C represents the MIC in the presence of ≤4 g/mL of a β-lactamase inhibitor)
O=C(CCc1cncs1)N[C@H]1Cc2cccc(C(=O)O)c2OB1O [Example 32, (R)-2-hydroxy-3-(3-(thiazol-5-yl)propanamido)-3,4-dihydro-2H-benzo[e][1,2]oxaborinine-8-carboxylicacid]	B (B represents the MIC in the presence of between 8 and 32 g/mL of a β-lactamase inhibitor)	C (C represents the MIC in the presence of ≤4 g/mL of a β-lactamase inhibitor)	1 to 10 µM	C (C represents the MIC in the presence of ≤4 g/mL of a β-lactamase inhibitor)	< 0.1 µM	C (C represents the MIC in the presence of ≤4 g/mL of a β-lactamase inhibitor)	< 0.1 µM	< 0.1 µM	C (C represents the MIC in the presence of ≤4 g/mL of a β-lactamase inhibitor)	< 0.1 µM	C (C represents the MIC in the presence of ≤4 g/mL of a β-lactamase inhibitor)
O=C(CN1CCCC1=O)N[C@H]1Cc2cccc(C(=O)O)c2OB1O [Example 33, (R)-2-Hydroxy-3-[2-(2-oxo-pyrrolidin-1-yl)-acetylamino]-3,4-dihydro-2H-benzo[e][1,2]oxaborinine-8-carboxylic acid]	C (C represents the MIC in the presence of ≤4 g/mL of a β-lactamase inhibitor)	C (C represents the MIC in the presence of ≤4 g/mL of a β-lactamase inhibitor)	1 to 10 µM	C (C represents the MIC in the presence of ≤4 g/mL of a β-lactamase inhibitor)	< 0.1 µM	C (C represents the MIC in the presence of ≤4 g/mL of a β-lactamase inhibitor)	< 0.1 µM	< 0.1 µM	C (C represents the MIC in the presence of ≤4 g/mL of a β-lactamase inhibitor)	< 0.1 µM	C (C represents the MIC in the presence of ≤4 g/mL of a β-lactamase inhibitor)
O=C(CCN1C(=O)CCC1=O)N[C@H]1Cc2cccc(C(=O)O)c2OB1O [Example 34, (R)-3-[3-(2,5-Dioxo-pyrrolidin-1-yl)-propionylamino]-2-hydroxy-3,4-dihydro-2H-benzo[e][1,2]oxaborinine-8-carboxylicacid]	B (B represents the MIC in the presence of between 8 and 32 g/mL of a β-lactamase inhibitor)	C (C represents the MIC in the presence of ≤4 g/mL of a β-lactamase inhibitor)	1 to 10 µM	B (B represents the MIC in the presence of between 8 and 32 g/mL of a β-lactamase inhibitor)	< 0.1 µM	B (B represents the MIC in the presence of between 8 and 32 g/mL of a β-lactamase inhibitor)	< 0.1 µM	< 0.1 µM	C (C represents the MIC in the presence of ≤4 g/mL of a β-lactamase inhibitor)	< 0.1 µM	C (C represents the MIC in the presence of ≤4 g/mL of a β-lactamase inhibitor)
O=C(/C=C/c1cocn1)N[C@H]1Cc2cccc(C(=O)O)c2OB1O [Example 44, (R)-2-Hydroxy-3-(3-oxazol-4-yl-acryloylamino)-3,4-dihydro-2H-benzo[e][1,2]oxaborinine-8-carboxylicacid]	B (B represents the MIC in the presence of between 8 and 32 g/mL of a β-lactamase inhibitor)	C (C represents the MIC in the presence of ≤4 g/mL of a β-lactamase inhibitor)	0.1 to 1 µM	C (C represents the MIC in the presence of ≤4 g/mL of a β-lactamase inhibitor)	< 0.1 µM	C (C represents the MIC in the presence of ≤4 g/mL of a β-lactamase inhibitor)	< 0.1 µM	< 0.1 µM	C (C represents the MIC in the presence of ≤4 g/mL of a β-lactamase inhibitor)	< 0.1 µM	C (C represents the MIC in the presence of ≤4 g/mL of a β-lactamase inhibitor)
O=C(CCc1cocn1)N[C@H]1Cc2cccc(C(=O)O)c2OB1O [Example 45, (R)-2-Hydroxy-3-(3-oxazol-4-yl-propionylamino)-3,4-dihydro-2H-benzo[e][1,2]oxaborinine-8-carboxylic acid]	B (B represents the MIC in the presence of between 8 and 32 g/mL of a β-lactamase inhibitor)	C (C represents the MIC in the presence of ≤4 g/mL of a β-lactamase inhibitor)	1 to 10 µM	C (C represents the MIC in the presence of ≤4 g/mL of a β-lactamase inhibitor)	< 0.1 µM	C (C represents the MIC in the presence of ≤4 g/mL of a β-lactamase inhibitor)	< 0.1 µM	< 0.1 µM	C (C represents the MIC in the presence of ≤4 g/mL of a β-lactamase inhibitor)	< 0.1 µM	C (C represents the MIC in the presence of ≤4 g/mL of a β-lactamase inhibitor)
